Measurements: patent publication US12115256B2, “Targeted liposomal gemcitabine and methods thereof” (L.E.A.F. HOLDINGS GROUP LLC, priority 2016, dated 2024)
Where two headings read alike, the source gives them in different places. Values belong to the compound of their own block, whether it stands above or below them.

Tests used:
[1] = target: T1, Reduced folate carrier (RFC) (Homo sapiens, UniProt P41440); conditions: read-out: Binding affinity, Km; cited from earlier work
T1 sequence (P41440 1-591): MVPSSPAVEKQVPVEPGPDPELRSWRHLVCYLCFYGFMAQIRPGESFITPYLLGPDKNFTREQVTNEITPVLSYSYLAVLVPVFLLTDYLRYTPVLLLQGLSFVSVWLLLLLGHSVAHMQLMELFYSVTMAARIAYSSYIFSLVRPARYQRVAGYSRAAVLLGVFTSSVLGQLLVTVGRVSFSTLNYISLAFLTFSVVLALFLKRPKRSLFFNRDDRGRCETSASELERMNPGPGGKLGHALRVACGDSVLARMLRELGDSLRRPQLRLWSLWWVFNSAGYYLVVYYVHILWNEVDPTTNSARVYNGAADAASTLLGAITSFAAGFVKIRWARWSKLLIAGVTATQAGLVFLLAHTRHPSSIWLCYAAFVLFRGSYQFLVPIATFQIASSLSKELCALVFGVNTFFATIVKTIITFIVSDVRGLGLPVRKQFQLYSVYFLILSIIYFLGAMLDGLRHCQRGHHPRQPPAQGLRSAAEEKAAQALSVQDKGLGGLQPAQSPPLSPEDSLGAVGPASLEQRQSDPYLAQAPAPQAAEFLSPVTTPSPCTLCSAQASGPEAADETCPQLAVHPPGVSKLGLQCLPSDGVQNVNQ

[2] = target: Folate receptor α (FRα) (Homo sapiens, UniProt P15328); conditions: read-out: Binding affinity, Kd; cited from earlier work
Folate receptor α (FRα), sequence (P15328 25-234, species assumed): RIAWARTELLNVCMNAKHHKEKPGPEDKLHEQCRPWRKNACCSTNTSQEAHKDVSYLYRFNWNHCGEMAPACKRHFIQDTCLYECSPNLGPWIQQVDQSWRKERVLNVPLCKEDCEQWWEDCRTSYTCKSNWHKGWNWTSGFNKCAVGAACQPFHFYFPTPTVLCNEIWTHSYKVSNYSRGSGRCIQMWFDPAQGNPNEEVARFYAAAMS

[3] = test system: HPAF-II pancreatic cancer cells; assay: MTS cell proliferation assay, HPAF-II; format: cell-based; conditions: Homo sapiens, 96 h, 4 days
Description: HPAF-II ATCC CRL-1997; Eagle's Minimum Essential Medium (EMEM) (ATCC® 30-2003Tm)); 10% HI FBS; 1% Pen/Strep; 1% L-Glutamine.
(§1) Cancer cell lines were seeded in 96 well plates on day 0 at optimal cell numbers. On day 1, drug formulations were added at 2-fold serial dilutions. The cells were incubated for 3-5 days and the level of inhibition of cellular proliferation was measured by the MTS assay (3-(4,5-dimethylthiazol-2-yl)-5-(3-carboxymethoxyphenyl)-2-(4-sulfophenyl)-2H-tetrazolium assay). The commercially available MTS Cell Proliferation Assay Kit (Colorimetric) (197010) is a colorimetric sensitive quantification of viable cells in proliferation and cytotoxicity assay. The assay is based on the reduction of MTS tetrazolium compound by viable cells to generate a colored formazan product that is soluble in cell culture media.
The MTS experiments are performed as follows: The night before, the cells are seeded according to the amount of cells required for each cell line in 96 well tissue culture plate. Final volume in each well is 100 μL (see Table of cell lines for reference; all cell lines obtained from ATCC).
The seeded cells are incubated at 37° C. and 5% CO 2 overnight. […]
(§2) On day 4, the effect on cellular proliferation was measured with MTS assay. […] The plates were incubated for 2 hours at 37° C. and the absorbance was measured at 490 nm. […]

[4] = test system: PANC-1 pancreatic cancer cells; assay: MTS cell proliferation assay, PANC-1; format: cell-based; conditions: Homo sapiens, 96 h, 4 days
Source text: (§3) Cells lines used in the experiments are commercially available from sources such as the ATCC (American Type Culture Collection of Manassas, Virginia, U.S.A). The cell lines, their ATCC accession numbers and growth conditions are listed below. • NCI-H2452 (ATCC® CRL-5946TH); RPMI-1640 (Cat. #30-2001); 10% HI FBS; 1% Pen/Strep; 1% L-Glutamine. • PANC-1 (ATCC® CRL-1469TH); Dulbecco's Modified Eagle's Medium (DMEM) (ATCC® 30-2002TM) 10% HI FBS; 1% Pen/Strep; 1% L-Glutamine • SKBR3; McCoy 5A Medium; 10% HI FBS; 1% Pen/Strep; 1% L-Glutamine.
as §1, with “The assay is based on the reduction of MTS tetrazolium compound by viable cells to generate a colored formazan product that is soluble in cell culture media.” left out
as §2

[5] = test system: NCI-H2452 lung (mesothelioma) cancer cells; assay: MTS cell proliferation assay, NCI-H2452; format: cell-based; conditions: Homo sapiens, 96 h, 4 days, MTS (FIG. 2)
Source text: as §3
as §1, with “The assay is based on the reduction of MTS tetrazolium compound by viable cells to generate a colored formazan product that is soluble in cell culture media.” left out
as §2

[6] = test system: SKBR3 breast cancer cells; assay: MTS cell proliferation assay, SKBR3; format: cell-based; conditions: Homo sapiens, SK-BR-3, 96 h, 4 days
Source text: as §3
as §1, with “The assay is based on the reduction of MTS tetrazolium compound by viable cells to generate a colored formazan product that is soluble in cell culture media.” left out
as §2

[7] = test system: CD34+ stem cells (hematopoietic progenitor cells) differentiating into neutrophils; format: cell-based; conditions: human, 2 days
Source text: The level of a molecule called CD15 is elevated on more mature neutrophils. This molecule is elevated on cells in the circles drawn on the plots.
FIG. 8. Neutrophil differentiation assay. One of the major side effects from gemcitabine treatment is the reduction of neutrophils in the bloodstream that counter infections. This is the result of CD34+ stem cells not differentiating, or developing, into mature neutrophils in the bone marrow. We measured the effect of targeted liposomal gemcitabine on neutrophil differentiation compared to the same dose of gemcitabine (10 and 50 μM.) Hematopoietic progenitor cells (CD34+) were purchased and treated with a panel of growth factors to induce neutrophil differentiation.
CD34+ stem cells were cultured without (A) or with (B) cytokines (growth factors) that induce neutrophil differentiation in vitro, including stem cell factor, IL-3, and […] for 2 days. […] By day 2, there is a dramatic increase in mature neutrophils depicted in the oval. […] The cells within the drawn gate (FIG. 8B) are larger, more complex maturing neutrophils that are lacking in FIG. 8A.
In more detail, experiments were performed as follows: CD34+ stem cells were obtained from ATCC. CD34+ cells were thawed at 37° C. for 1 minute. While on ice, the cells were transferred to cold stem cell medium (“StemSpan SFEM”—Stem Cell Tech. cat. #9650), 10% heat […] fetal bovine serum (HI FBS.) Each vial contained approximated 5×10^5 cell/ml. The cells were placed in 96 well tissue culture plates 35,000 cell/well.
The neutrophils GROWTH media contained 100 ng/ml of stem cell factor human (SCF-Sigma H8416, lot #MKBT8036V), 20 ng/ml of granulocyte colony-stimulation factor, human (G-CSF-Sigma H5541, lot #SLBC9602V), 10 ng/ml of IL3 recombinant human (Sigma SRP3090, lot #1008AFC13) in StemSpam media as above.
The cells were also treated as follows 1) StemSpam media alone with no growth cytokines; 2) StemSpam media+growth cytokines, and 3) Gemcitabine, Targeted Liposomal Gemcitabine and non-Targeted Liposomal Gemcitabine in amounts as indicated. […]

Structure (SMILES): CN1c2c(nc(N)[nH]c2=O)NCC1CNc1ccc(C(=O)N[C@@H](CCC(=O)O)C(=O)O)cc1 (some centres unmarked) [5-mTHF, 5-methyltetrahydrofolate]
Km [1]: 1 to 10 µM
Kd [2]: 1 to 10 nM

IC50 [3]: 9.11 µM
IC50 [4]: 11 µM
IC50 [5]: 30.4 µM
IC50 [6]: 297 µM
Number of live cells within the neutrophil gate (CD15+) [7]: less than 100
Percentage of live cells within the neutrophil gate ([7]; 10 μM): less than 5%
Percentage of live cells within the neutrophil gate ([7]; 50 μM): less than 20%
Structure (SMILES): Nc1ccn([C@@H]2O[C@H](CO)[C@@H](O)C2(F)F)c(=O)n1 [Gemcitabine, gemcitabine]

Structure (SMILES): Nc1nc2ncc(CNc3ccc(C(=O)N[C@@H](CCC(=O)O)C(=O)O)cc3)nc2c(=O)[nH]1 [folic acid]
Km [1]: 200 to 400 µM

Structure (SMILES): CN(Cc1cnc2nc(N)nc(N)c2n1)c1ccc(C(=O)N[C@@H](CCC(=O)O)C(=O)O)cc1 [methotrexate]
Km [1]: 1 to 5 µM
